Results published in article PMC12609579, “Acute Myeloid Leukemia: A Key Role of DGKα and DGKζ in Cell Viability” (Cells, 2025).

What was measured:
[1] = target: serotonin 5-HT2C receptor; design: method as in PMID 2860558; details: cited from earlier work
[2] = test system: normal hematopoietic stem cell samples; design: method as in PMID 37392305; details: 40 μM; cited from earlier work
[3] = test system: HEL cells; test: alamarBlue cell viability assay, HEL; format: cell-based, human
Description: (§1) The alamarBlue assay was performed to assess cell viability in presence of chemical inhibitors. A total of 50,000 cells per well were seeded in a 96-wells plate in a volume of 100 μL of complete medium together with 10 μL of 10× concentrated inhibitor solution and then incubated for either 24 or 72 h. Each experimental condition was performed in technical quadruplicates, using cells treated with equal amounts of DMSO vehicle as control and medium alone as background. After incubation, alamarBlue was added to each well at a final concentration of 0.15 mg/mL. The fluorescence of the samples was measured 24 h later using a Spark 10 M Multimode Plate Reader (Tecan, Switzerland) with excitation and emission wavelengths of 535 nm and 590 nm, respectively. For dose–response curve fitting, fluorescence values were normalized according to the following formula:Viability (%) = [(sample mean fluorescence)/(DMSO control mean fluorescence)] ∗ 100
(§2) Data are the results of at least five independent experiments analyzed with GraphPad Prism 10 as [inhibitor] vs. normalized response curve (variable slope, after manual outlier removal).

[4] = test system: HL-60 cells; test: alamarBlue cell viability assay, HL-60; format: cell-based, human
Description: as §1, §2

[5] = target: serotonin 5-HT2A receptor; details: cited from earlier work
[6] = test system: HEL cells; test: Annexin V-FITC/7AAD apoptosis/necrosis flow cytometry, HEL; format: cell-based, human; details: 24 h
Description: (§3) To determine the type of cell death, apoptotic and necrotic cells were detected by flow cytometry using the Apoptosis Detection Kit Annexin V-FITC (Invitrogen, Carlsbad, CA, USA). For each sample, 500,000 cells, pretreated for 24 h, were stained according to manufacturer’s instructions, using 7-aminoactinomycin D (7AAD) instead of propidium iodide. Samples were analyzed on a BD FACS Symphony A5 flow cytometer (Franklin Lakes, NJ, USA) using BD FACSDiva 9.1 software. Data were gated based on FSC-A vs. FSC-H to exclude cell doublets and FSC-A vs. SSC-A to exclude debris. Different populations were identified as: live (Annexin V− and 7AAD−), necrotic (Annexin− and 7AAD+), early apoptotic (Annexin V+ and 7AAD−) and late apoptotic (Annexin+ and 7AAD+). Data are shown as mean ± SD of at least three independent experiments analyzed by GraphPad Prism 10 (control vs. [inhibitor]).

[7] = test system: HL-60 cells; test: Annexin V-FITC/7AAD apoptosis/necrosis flow cytometry, HL-60; format: cell-based, human; details: HL-60, 24 h
Description: as §3

[8] = test system: Peripheral blood lymphocytes (PBLs); test: alamarBlue cell viability assay, PBLs from healthy donors; format: cell-based, human; details: for IC50: Homo sapiens, Lymphocyte, PBLs from healthy donors
Description: These four cell lines were employed in this study as in vitro models of AML, cell line identity was verified through a Cell Line Authentication Test conducted by Eurofins Genomics (Ebersberg, Germany) or by the internal university service. The resulting markers matched 100% with those reported in the ATCC database. […] L. Manzoli (Bologna, Italy), is reported as K562-related, differing from K526 by a single marker. Cells were cultured in RPMI-1640 medium (ThermoFisher Scientific, Waltham, MA, USA) supplemented with 10% heat-inactivated fetal bovine serum (FBS) and 1% penicillin-streptomycin, following the handling protocols provided by ATCC (Manassas, VA, USA). Additionally, healthy donor blood samples were provided by the UPO biobank under approved Ethical Committee authorization (Comitato Etico Interaziendale A.O.U. Maggiore della Carità 865/CE-CE206/2022 date 24 October 2022) and with informed consent for research use. Peripheral blood mononuclear cells were isolated by density gradient centrifugation using Ficoll-Paque PLUS (GE 14 Healthcare, Chicago, IL, USA), washed, and resuspended at a concentration of 2 × 10^6 cells/mL in RPMI-1640 medium containing 10% heat-inactivated FBS. Peripheral blood lymphocytes (PBLs) were selected by the treatment with 1 μg/mL anti-CD3 (clone OKT3) and anti-CD28 (clone CD28.2) human antibodies for 72 h. […]
The alamarBlue assay was performed to assess cell viability in presence of chemical inhibitors. […] The fluorescence of the samples was measured 24 h later using a Spark 10 M Multimode Plate Reader (Tecan, Switzerland) with excitation and emission wavelengths of 535 nm and 590 nm, respectively. For dose–response curve fitting, fluorescence values were normalized according to the following formula:Viability (%) = [(sample mean fluorescence)/(DMSO control mean fluorescence)] ∗ 100
Data are the results of at least five independent experiments analyzed with GraphPad Prism 10 as [inhibitor] vs. normalized response curve (variable slope, after manual outlier removal). […]

[9] = test system: THP-1 cells; test: alamarBlue cell viability assay, THP-1; format: cell-based; details: Homo sapiens
Description: as §1, §2

[10] = test system: K562 cells; test: alamarBlue cell viability assay, K562; format: cell-based, human
Description: as §1, §2

[11] = test system: THP-1 cells; test: IPA canonical pathway analysis of differentially abundant proteins; format: cell-based, human; details: THP-1, 24 h; ritanserin 50 µM, BAY 2965501 75 µM
Excerpt: A Venn diagram was created to depict the overlap of differentially abundant proteins shared between the two treatments. These proteins, along with their gene symbols and log2FC values, were then used as input for IPA Core Analysis. The following filters were applied: human species and reference tissues/cells (hematopoietic progenitor cells, macrophages, monocytes, peripheral blood monocytes, and THP1 leukemic cells). The resulting Ingenuity Canonical Pathways were downloaded using standard filters and further refined to consider only those with a |Z-score| > 1. For ritanserin vs. DMSO, the top 15 most significant pathways were represented in a bar plot, while for BAY 2965501 vs. DMSO, only three significant pathways were identified and plotted.

[12] = concentration close to IC50, representative plot

Cc1nc2sccn2c(=O)c1CCN1CCC(=C(c2ccc(F)cc2)c2ccc(F)cc2)CC1 [ritanserin]
Ki [1]: 0.00071 µM | apoptosis, % of cells [2]: below 30% | IC50 ([3]; 24 h treatment then alamarBlue 24 h): ~49 µM | IC50 ([3]; Homo sapiens, 24 h, 24 h treatment then alamarBlue 24 h): 49.2 ± 2 µM | IC50 ([3]; Homo sapiens, 72 h treatment then alamarBlue 24 h): 29.6 ± 1 µM | IC50 ([4]; HL-60, 24 h treatment then alamarBlue 24 h): ~38 µM | IC50 ([4]; Homo sapiens, HL-60, 24 h, HL-60, 24 h treatment then alamarBlue 24 h): 37.6 ± 1.5 µM | IC50 ([4]; Homo sapiens, HL-60, HL-60, 72 h treatment then alamarBlue 24 h): 25.3 ± 0.9 µM | Ki [5]: 0.00045 µM | Early apoptotic (Annexin V+ 7AAD-) [6, 12]: 12.2% | Late apoptotic (Annexin+ 7AAD+) [6, 12]: 2.3% | Live cells (Annexin V- 7AAD-) [6, 12]: 82.5% | Necrotic (Annexin- 7AAD+) [6, 12]: 2.9% | modality of cell death ([6]; concentration near IC50): early apoptosis | Early apoptotic (Annexin V+ 7AAD-) [7, 12]: 3.3% | Late apoptotic (Annexin+ 7AAD+) [7, 12]: 62.9% | Live cells (Annexin V- 7AAD-) [7, 12]: 33.8% | Necrotic (Annexin- 7AAD+) [7, 12]: 0% | modality of cell death ([7]; concentration near IC50): late apoptosis | IC50 ([8]; 24 h): 42.9 ± 1.3 µM | IC50 ([8]; 72 h): 32.5 ± 1.9 µM | cell death of IL-2 stimulated proliferating PBLs ([8]; untransformed PBLs, 50 μM): complete cell death | IC50 ([9]; THP-1, 24 h, THP-1, 24 h treatment then alamarBlue 24 h): 37 ± 1.4 µM | IC50 ([9]; THP-1, THP-1, 72 h treatment then alamarBlue 24 h): 32 ± 1.5 µM | IC50 ([10]; Homo sapiens, K562, 24 h, K562, 24 h treatment then alamarBlue 24 h): 70.4 ± 2.2 µM | IC50 ([10]; Homo sapiens, K562, K562, 72 h treatment then alamarBlue 24 h): 42.5 ± 1.8 µM | IC50 ([10]; K562, 24 h treatment then alamarBlue 24 h): ~70 µM | number of pathways affected / significantly downmodulated [11]: more than 500
